Experimental data reported in patent publication US6300501A, “Histidine-(N-benzyl glycinamide) inhibitors of protein farnesyl transferase” (Warner-Lambert Company, priority 1998, dated 2001).
Where two headings read alike, the source gives them in different places.

How the values were obtained:
[1] = biological target: T1, SF9 affinity purified rat farnesyl protein transferase (Rattus norvegicus, UniProt Q02293+Q04631); assay: PFT inhibitory activity (radiolabeled farnesyl pyrophosphate, streptavidin bead assay); type: biochemical
T1 construct: made in house; host or cells: Sf9 insect cells (baculovirus system inferred from b7)
Protocol: The protein:farnesyl transferase (PFT) or farnesyl protein transferase (FPT) inhibitory activity of compounds of the present invention were assayed in HEPES buffer (pH 7.4) containing 5 mM potassium phosphate and 20 μM ZnCl2. The solution also contained 5 mM DTT (dithiothreitol), 5 mM MgCl2, and 0.1% PEG 8000. Assays were performed in 96 well plates (Wallec) and employed solutions composed of varying concentrations of a compound of the present invention in 100% DMSO (dimethylsulfoxide). Upon addition of both substrates, radiolabeled farnesyl pyrophosphate ([1^3 H], specific activity 15-30 Ci/mmol, final concentration 134 nM) and (biotinyl)-Ahe-Thr-Lys-Cys-Val-Ile-Met ([3aS[3a alpha, 4 beta, 6a alpha]-hexahydro-2-oxo-1H-thieno[3,4-d]imidazole-5-pentanoic acid]-[7-aminoheptanoic acid]-Thr-Lys-Cys-Val-Ile-Met) (Ahe is 7-aminoheptanoic acid, Thr is threonine, Lys is lysine, Cys is cysteine, Val is valine, Ile is isoleucine and Met is methionine) (final concentration 0.2 μM), the enzyme reaction was started by addition of SF9 affinity purified rat farnesyl protein transferase. After incubation at 30° C. for 30 minutes, the reaction was terminated by diluting the reaction 2.5-fold with a stop buffer containing 1.5 M magnesium acetate, 0.2 M H3 PO4, 0.5% BSA (bovine serum albumin), and strepavidin beads (Amersham) at a concentration of 1.3 mg/mL. After allowing the plate to settle for 30 minutes at room temperature, radioactivity was quantitated on a microBeta counter (Model 1450, Wallec). The assay was also carried out without 5 mM potassium phosphate.

[2] = test system: H61 cells: NIH transformed 3T3 H-ras cells; assay: Clonogenic assay (6 well plates, soft agar); type: cell-based
Protocol: Clonoaenic Assay (6 well lates)
Sometime previous to setting up an actual test:
1. Make up 1.5% Bacto Agar in Milli-Q water and autoclave.
2. Make up 500 mL 2× DMEM-HG without phenol red by combining the following:
1 bottle DMEM base powder (Sigma D-5030)
Adjust pH to 7.1 with HCL; filter sterilize.
1. Set up makeshift water bath (beaker of water with thermometer, on hot plate) in the hood. Keep water temperature between 37° C. to 43° C.
2. […] 1.5% Bacto Agar for approximately 2 minutes on high, or until completely melted. Then let it cool somewhat before using it. (You can keep it from resolidifying by setting the bottle on the hot plate.) […]
3. Bottom Layer (0.6% agar) Top Layer (0.3% agar)
20% calf serum 20% calf serum
40% Bacto Agar (1.5%) 20% Bacto Agar (1.5%)
Depending on the volume of each layer needed, use either 50 mL conical tubes or 200 mL turnip tubes which can be floated in the "water bath".
4. Add 1 mL of bottom layer agar/medium to each well: deliver 1 mL warm agar/medium to a well; then using the tip of the pipet, spread the agar/medium around to completely cover the bottom. Repeat with next well.
5. Allow the plates to set at room temperature for about 5 minutes until the bottom layer solidifies.
6. Label sterile Falcon 2054 (12×75 mm) tubes and add appropriate volume of drug solutions into them.
7. Aliquot 4 AL of DMSO or drug solution per 1 mL of agar/medium to appropriate tubes; then add the agar/medium/cells to each tube. Always add 1 mL more than will actually be needed. Mix up and down in the pipet (gently); then deliver 1 mL to the center of each well. The upper layer is less viscous, so it will generally spread out over the bottom layer unaided. If necessary, rotate the plane of the plate gently to spread the top layer evenly over the bottom layer.
8. Let plates set for 5 or 10 minutes at room temperature to solidify, then put into 5% CO2, 37° C. incubator.
9. On Day 13, add 0.5 mL of INT (tetrazolium 1 mg/mL in Milli-Q H2 O, filter sterilized) and return plates to incubator.

[3] = test system: ras farnesylation in ras-transformed cells; assay: Gel shift assay; type: cell-based; settings: for minimal effective concentration: read-out: Gel Shift (μM) MED (minimal effective dose to observe inhibition of ras farnesylation)
Protocol: Twenty-four hours after planting 2×10^6 ras-transformed cells per treatment condition, the farnesylation inhibitor is added at varying concentrations. Following an 18-hour incubation period, cells are lysed in phosphate-buffered saline containing 1% Triton X-100, 0.5% sodium deoxycholate, and 0.1% SDS (sodium dodecyl sulfate), pH 7.4 in the presence of several protease inhibitors (PMSF (phenylmethylsulfonylfluoride), antipain, leupeptin, pepstatin A, and aprotinin all at 1 μg/mL). Ras protein is immunoprecipitated from the supernatants by the addition of 3 μg v-H-ras Ab-2 (Y13-259 antibody from Oncogene Science). After overnight immunoprecipitation, 30 μL of a 50% protein G-Sepharose slurry (Pharmacia) is added followed by 45-minute incubation. Pellets are resuspended in 2× tris-glycine loading buffer (Novex) containing 5% β-mercaptoethanol and then denatured by 5 minutes boiling prior to electrophoresis on 14% Tris-glycine SDS gels. Using Western transfer techniques, proteins are transferred to nitrocellulose membranes followed by blocking in blocking buffer. Upon overnight incubation with primary antibody (pan-ras Ab-2 from Oncogene Science), an antimouse HRP (horse radish peroxidase) conjugate secondary antibody (Amersham) is employed for detection of the ras protein. Blots are developed using ECL(enhanced chemiluminescence) techniques (Amersham).

[4] = HEPES buffer pH 7.4, without 5 mM potassium phosphate, read-out: IC50 (μM) Hepes
[5] = HEPES buffer pH 7.4 containing 5 mM potassium phosphate, read-out: IC50 (μM) 5 mM K3 PO4 -2
[6] = with 5 mM potassium phosphate, average obtained by additional tests, read-out: IC50 (μM) 5 mM K3 PO4 -2, number in parentheses
[7] = without 5 mM potassium phosphate, average obtained by additional tests, read-out: IC50 (μM) Hepes, number in parentheses
[8] = colonies counted after Day 13, read-out: Clonogenic Assay IC50
[9] = ras-transformed cells, 18-hour incubation
[10] = 312 h, colonies counted after Day 13, read-out: Clonogenic Assay IC50
[11] = average obtained by additional tests, read-out: Clonogenic Assay IC50 (μM), number in parentheses

T1 sequence (Q02293 whole entry, one chain of several): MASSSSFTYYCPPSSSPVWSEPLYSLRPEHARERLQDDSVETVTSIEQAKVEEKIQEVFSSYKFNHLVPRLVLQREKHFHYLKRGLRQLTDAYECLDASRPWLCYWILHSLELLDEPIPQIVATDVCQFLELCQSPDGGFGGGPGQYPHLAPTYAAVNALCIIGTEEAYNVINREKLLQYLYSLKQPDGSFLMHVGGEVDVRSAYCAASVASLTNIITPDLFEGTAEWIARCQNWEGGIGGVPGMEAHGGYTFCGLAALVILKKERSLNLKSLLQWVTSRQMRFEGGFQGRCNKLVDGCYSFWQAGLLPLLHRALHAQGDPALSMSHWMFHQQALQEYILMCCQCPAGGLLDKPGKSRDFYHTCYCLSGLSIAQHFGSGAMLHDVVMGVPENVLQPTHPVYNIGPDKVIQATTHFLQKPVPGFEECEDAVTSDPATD

Row | Structure (SMILES) | IC50 [1, 4] | IC50 [1, 5] | IC50 [1, 6] | IC50 [1, 7] | IC50 [2, 8] | minimal effective concentration [3, 9] | IC50 [2, 10] | IC50 [2, 11] | Gel Shift (μM) MED, number in parentheses ([3]; average obtained by additional tests) | Gel Shift (μM) MED (minimal effective dose to observe inhibition of ras farnesylation) [3, 9]
1 | O=C(CN(Cc1ccc(Cl)cc1)C(=O)[C@H](Cc1c[nH]cn1)NC(=O)OCc1ccccc1)NCCOCc1ccccc1 [Example 3] | 3.1 µM | 0.97 µM | 0.61 µM | 2.8 µM | > 1 µM | 0.25 µM | – | – | – | –
2 | CC(CNC(=O)CN(Cc1ccc(OCc2ccccc2)cc1)C(=O)[C@H](Cc1c[nH]cn1)NC(=O)OCc1ccccc1)c1ccccc1 (stereo partly drawn) [Example 4, (S)-[1-[(4-Benzyloxy-benzyl)-[(2-phenyl-propyl-carbamoyl)-methyl]-carbamoyl]-2-(1H-imidazole-4-yl)-ethyl]carbamic Acid Benzyl Ester] | 5.8 µM | 0.0076 µM | 0.005 µM | 0.15 µM | – | 0.05 µM | > 1 µM | 0.31 µM | – | –
3 | O=C(CN(Cc1ccc(OCc2ccccc2)cc1)C(=O)[C@H](Cc1c[nH]cn1)NC(=O)OCc1ccccc1)NCC(c1ccccc1)c1ccccc1 [Example 5, (S)-[1-[(4-Benzyloxy-benzyl)-[(2,2-diphenyl-ethylcarbamoyl)-methyl]-carbamoyl]-2-(1H-imidazole-4-yl)-ethvl]-carbamic Acid Benzyl Ester] | 1.73 µM | 0.038 µM | – | 1.6 µM | 0.71 µM | 0.2 µM | – | 2.5 µM | 0.05 µM | –
4 | CC(CNC(=O)CN(Cc1ccc(OCc2ccccc2)cc1)C(=O)[C@H](Cc1c[nH]cn1)NC(=O)NCc1ccccc1)c1ccccc1 (stereo partly drawn) [Example 6, (S)-N-(4-Benzyloxy-benzyl)-2-(3-benzyl-ureido)-3-(1H-imidazole-4-yl)-N-[(2-phenyl-propylcarbamoyl)-methyl]-propionamide] | 0.2 µM | 0.0022 µM | 0.017 µM | 0.5 µM | – | 0.2 µM | > 1 µM | – | – | –
5 | O=C(CN(Cc1ccc(OCc2ccccc2)cc1)C(=O)[C@H](Cc1c[nH]cn1)NC(=O)OCc1ccccc1)NCCc1ccccc1F [Example 7, (S)-[1-((4-Benzyloxy-benzyl)-{[2-(2-fluoro-phenyl)-ethylcarbamoyl]-methyl]-carbamoyl)-2-(1H-imidazole-4-yl)-ethyl]-carbamic Acid Benzyl Ester] | 9.8 µM | 0.36 µM | – | – | – | 0.1 µM | > 1 µM | – | – | –
6 | O=C(CN(Cc1ccc(OCc2ccccc2)cc1)C(=O)[C@H](Cc1c[nH]cn1)NC(=O)OCc1ccccc1)NCCc1ccccn1 [Example 8, (S)-[1-{(4-Benzyloxy-benzyl)-[(2-pyridin-2-yl-ethylcarbamoyl)-methyl]-carbamoyl]-2-(1H-imidazole-4-yl)-ethyl]-carbamic Acid Benzyl Ester] | 7.8 µM | 0.3 µM | – | – | – | 0.2 µM | > 1 µM | – | – | –
7 | O=C(CN(Cc1ccc(OCc2ccccc2)cc1)C(=O)[C@H](Cc1c[nH]cn1)NC(=O)OCc1ccccc1)NCCc1ccccc1Br [Example 9, (S)-[1-((4-Benzyloxy-benzyl)-{[2-(2-bromo-phenyl)-ethylcarbamoyl]-methyl}-carbamoyl)-2-(1H-imidazole-4-yl)-ethyl]-carbamic Acid Benzyl Ester] | 4.5 µM | 0.36 µM | – | – | – | 0.2 µM | > 1 µM | – | – | –
8 | C[C@H](Cc1ccccc1)NC(=O)CN(Cc1ccc(OCc2ccccc2)cc1)C(=O)[C@H](Cc1c[nH]cn1)NC(=O)OCc1ccccc1 [Example 10] | 0.58 µM | 0.018 µM | – | – | 0.71 µM | – | – | – | – | 0.01 to 0.05 µM
9 | C[C@@H](Cc1ccccc1)NC(=O)CN(Cc1ccc(OCc2ccccc2)cc1)C(=O)[C@H](Cc1c[nH]cn1)NC(=O)OCc1ccccc1 [Example 11] | 2.5 µM | 0.082 µM | – | – | > 1 µM | 0.2 µM | – | – | – | –
